The source of these data is US20050153998A1, “Tetrahydroisoquinoline or isochroman compounds” (priority 2003, published 2005).

The assay addresses T1, human ORL1 receptor (Homo sapiens, UniProt P41146).
T1 construct: expressed in transfected cells; host or cells: HEK-293
Description: ORL1-receptor binding assay ([3H]nociceptin, SPA). The settings on record: human ORL1 receptor transfected HEK-293 cell membranes, 0.4 nM [3H]nociceptin; read-out: IC50 value with regard to binding activity for the ORL1 receptor. As for the experimental part: The human ORL1 receptor transfected HEK-293 cell membranes were incubated for 45 min at 22° C. with 0.4 nM [^3H]nociceptin, 1.0 mg of wheat germ agglutinin-coated SPA beads and various concentrations of test compounds in a final volume of 200 μl of 50 mM HEPES buffer pH7.4 containing 10 mM MgCl2 and 1 mM EDTA. Non-specific binding was determined by the addition of 1 μM unlabeled nociceptin. After the reaction, the assay plate was centrifuged at 1,000 rpm for 1 min and then the radioactivity was measured by a Liquid Scintillation Counter.
Each percent NSB thus obtained was graphed as a function of compound concentration. A sigmoidal curve was used to determine 50% bindings (i.e., IC50 values).

Each structure is given as a SMILES string. pIC50: −log10 of the molar value.

T1 sequence (P41146 whole entry): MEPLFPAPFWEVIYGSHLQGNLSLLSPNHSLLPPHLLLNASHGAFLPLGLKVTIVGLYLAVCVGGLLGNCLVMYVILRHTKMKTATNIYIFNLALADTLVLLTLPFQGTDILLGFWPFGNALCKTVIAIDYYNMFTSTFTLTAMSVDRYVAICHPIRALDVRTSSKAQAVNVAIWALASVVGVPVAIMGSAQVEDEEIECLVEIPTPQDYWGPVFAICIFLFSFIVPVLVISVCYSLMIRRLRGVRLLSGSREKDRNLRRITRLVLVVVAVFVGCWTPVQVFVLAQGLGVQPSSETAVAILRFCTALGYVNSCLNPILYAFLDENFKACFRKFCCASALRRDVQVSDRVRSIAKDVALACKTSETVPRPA

What is called pIC50 is −log10 of the IC50, conventionally taken in molar units. For `CN1CC2(CCN(CC3Cc4c(F)ccc(O)c4CN3)CC2)c2ccccc21` (centres unmarked) [Example 11, 5-Fluoro-3-[(1-methyl-1,2-dihydro-1′H-spiro[indole-3,4′-piperidin]-1′-yl)methyl]-1,2,3,4-tetrahydroisoquinolin-8-ol], the pIC50 is 8.13.

As for `CN1C(=O)C2(CCN(CC3Cc4c(F)ccc(O)c4CN3)CC2)c2ccccc21` (centres unmarked) [Example 22, 1′-[(5-Fluoro-8-hydroxy-1,2,3,4-tetrahydroisoquinolin-3-yl)methyl]-1-methylspiro[indole-3,4′-piperidin]-2(1H)-one], the pIC50 is 8.31.
